Reference: patent publication US9651566B2, “Method for determining the propensity for calcification” (Rheinisch-Westfälische Technische Hochschule Aachen, priority 2011, dated 2017)

B1: fetuin A: the strongest intrinsic serum calcification inhibitor (protein, UniProt P02765 19-300; P02765 341-367, looked up)
Alpha-2-HS-glycoprotein chain … 1: APHGPGLIYRQPNCDDPETEEAALVAIDYINQNLPWGYKHTLNQIDEVKVWPQQPSGELFEIEIDTLETTCHVLDPTPVARCSVRQLKEHAVEGDCDFQLLKLDGKFSVVYAKCDSSPDSAEDVRKVCQDCPLLAPLNDTRVVHAAKAALAAFNAQNNGSNFQLEEISRAQLVPLPPSTYVEFTVSGTDCVAKEATEAAKCNLLAEKQYGFCKATLSEKLGGAEVAVTCMVFQTQPVSSQPQPEGANEAVPTPVVDPDAPPSPPLGAPGLPPAGSPPDSHVL
Alpha-2-HS-glycoprotein chain … 2: TVVQPSVGAAAGPVVPPCPGRIRHFKV

Key:
[1] = test system: transition of primary CPPs into secondary CPPs; assay: Nephelometer assay in the presence of serum; assay type: biochemical, human; conditions: for transition rate of primary CPPs into secondary CPPs (T50): in the presence of the substance, cf. FIG. 2A
Procedure: Stock Solutions: 1. NaCl-solution: NaCl 140 mM, 2. Calcium solution: CaCl2 40 mM+Hepes 100 mM+NaCI 140 mM, pH adjusted with NaOH 10 mM to 7.40 at 37° C., 3. […] Na2HP04 19.44 mM+NaH2PO4 4.56 mM+Hepes 100 mM+NaCI 140 mM, pH adjusted with NaOH 10 mM to 7.40 at 37° C. […] These pipetting steps were performed in the following order: 1. NaCl-solution: 20 μl/well, 2. serum 80 μl/well, 3. shaking for 1 minute, 4. phosphate solution 50 μl/well, 5. shaking for 1 minute, 6. calcium solution 50 μl/well, shaking for 1 minute. Air bubbles in the wells were disintegrated with a pocket lighter and the 96-well covered with a […] adhesive sealing film for microplates. […] Assay conditions and Nephelostar® settings: measurement in a thermo constant room at 34.5° C. with the internal radiation of the device turned off. This led to an infernal measurement temperature of 36.5° C. to 37° C. The Nephelostar® was operated and controlled via the Nephelostar provider's Galaxy Software on a Windows Computer platform. The assay was performed with 200 cycles of 1.5 seconds measurement time per well and a position delay of 0.1 seconds in horizontal plate reading mode, adding up to a cycle time of 180 seconds/cycle for our Standard assay. This adds up to a total assay run time of 10 hours per assay. […] After completion of the run, data were transferred to Excel® and transposed from lines into columns. Data columns were copied into the GraphPad Prism® program to generate an XY-graph. Data were then processed by calculating nonlinear regression in the “log(agonist) vs. response-variable slope (four Parameters)” mode using the “robust fit” fitting method. The resulting values obtained for T50 and RNUT50 were further processed as required. We chose physiological conditions for temperature (37° C.) and pH (7.40 at 37° C.), and designed the assay for a final volume of 200 μl per well. These 200 μl consisted of 20 μl NaCl 140 mM, 80 μl serum, 50 μl phosphate 24 mM and 50 μl calcium 40 mM solution which were mixed in this order. […]

[2] = test system: transition of primary CPPs into secondary CPPs; assay: Nephelometry in the absence of serum; assay type: biochemical; conditions: FIG. 6A

| Molecule | transition rate of primary CPPs into secondary CPPs (T50) [1] | further results |
| --- | --- | --- |
| phosphate | accelerated | – |
| [Mg+2] [magnesium] | delayed | – |
| O=S([O-])([O-])=S.[Na+].[Na+] [sodium thiosulfate] | – | impact on the assay ([1]; spiked to serum in amounts of up to 40 mM): did not have any impact |
| B1 | – | influence on the assay (spiked serum components) [2]: significantly influences the assay |
